Data set [1] has as its system tumour astrocyte lines. The conditions noted are these: lines from primary cultures of astrocytes of newborn rat brain; cited from earlier work.
Data set [2] deals with rat brain C6 glioblastoma cells. Description: intratumoral injection of liposomes in rats with intracerebral implantation of C6 glial cells (earlier studies). Type of data set: in vivo. The conditions noted are these: compared with animals treated with liposomes only. An excerpt:
The effect of 7-β-hydroxy cholesteryl-3-β-oleate-ester on rat brain C6 glioblastoma cells was studied (Werthle M & All).
The ester of 7-β-hydroxy-cholesterol, the 7-β-hydroxy cholesteryl-3-β-oleate-ester (7-β-OHCOE) belongs to the oxysterols.

Details of data set [3]: species or system rats and mice. The conditions noted are these: in vivo.
Data set [4] can be described thus: stability of Oxysterol solution to autoclave sterilisation. Type of data set: physicochemical. Here is the method: A solution of 5 mg Oxysterol in 5 ml of a mixture Acetonitrile / isopropanol (44/56 v/v) is prepared then sterilized in the autoclave for 20 min at 121°C. The solution is analysed according to a […] method of oxysterol before and after autoclaving. The solution of oxysterol is subjected to a second autoclaving for 30minutes at 121°C. The areas of the peaks of oxysterol are determined and the yield after autoclaving is calculated in the following manner Yield: Area of oxysterol after autoclaving; Area of oxysterol before autoclaving x 100 [formula]

A short description of data set [5]: stability of active principle in the finished product to autoclaving. The conditions noted are these: for Content in oxysterol: samples PE1-PE3, listed as oxysterol. Type of data set: physicochemical. Here is the method:
A batch has been subjected to a dosage before and after autoclaving 20 minutes at 121 °C, to determine whether oxysterol also resists to autoclaving. Three samples have been analysed :
The autoclaving yield is calculated in the following manner Yield autoclaving: Content oxysterol after autoclaving; Content oxysterol before autoclaving x 100 [formula]

Data set [6] concerns glioma C6 Cells. Description: single stereotactic cerebral intra-ventricular injection in rats implanted with glioma C6 cells. Type of data set: in vivo.
Data set [7] has as its system Advanced glioblastoma, Grade III o IV astrocytoma, Anaplastic oligodendroglioma. Description: compassionate clinical trial, stereotactic administration of liposomal form. Type of data set: in vivo, patients. The conditions noted are these: 1 to 3 doses, total 0.05 to 3.2mg/patient.
Data set [8] relates to rat brain C6 glioblastoma cells. The conditions noted are these: injection of liposomes containing the ester vs liposomes without oxysterol (Werthle M & All); cited from earlier work.
[9] abbreviates: 2 autoclavings, second for 30 minutes at 121°C.
[10] abbreviates: after autoclaving 20 minutes at 121 °C.

“And” between values parts separate entries of the source, which are not always exact repeats. Equal values may be shown once. “Also recorded” adds a separate entry of the source.

With `CC(C)CCC[C@@H](C)[C@H]1CC[C@H]2[C@@H]3[C@@H](O)C=C4C[C@@H](O)CC[C@]4(C)[C@H]3CC[C@]12C` [7-β-OH-CH, 7 beta-hydroxy-cholesterol], in data set [1], the “lethal effect / cytotoxicity” value is on record as “lethal effect”.

On to `CCCCCCCC/C=C\CCCCCCCC(=O)O[C@H]1CC[C@@]2(C)C(=C[C@H](O)[C@H]3[C@@H]4CC[C@H]([C@H](C)CCCC(C)C)[C@@]4(C)CC[C@@H]32)C1` [7-β-OHCOE, 7-β-hydroxy cholesteryl-3-β-oleate-ester], for which, in data set [2], the tumor growth result was “significant regression of tumor growth; also recorded: spectacular regression of tumour growth”. The metabolism entry in data set [3] is reported as “metabolized to cholesterol within the cerebral parenchyma”. Moreover, the noxious effects entry in data set [3] is “no noxious effects”. Also, the “Area oxysterol after autoclaving” value is on record as 5517,4 in data set [4] (1 autoclaving, 20 min at 121°C) and 5716,3 in data set [4] (setting [9]). Besides, the Yield of autoclaving in data set [4] (1 autoclaving, 20 min at 121°C) is given as 100,2%; in data set [4] (setting [9]) it was 100,9%. Also, the “Area oxysterol before autoclaving” value in data set [4] (1 autoclaving, 5 mg in 5 ml Acetonitrile / isopropanol (44/56 v/v)) is given as 5506,5; in data set [4] (2 autoclavings), 5666,1. Also, the “Content in oxysterol, Average” value in data set [5] (setting [10]) was 1,43 mg/g; in data set [5] (before autoclaving), 1,46 mg/g. Also, the Content in oxysterol is 1,42 mg/g and 1,41 mg/g and 1,45 mg/g in data set [5] (setting [10]); 1,45 mg/g and 1,46 mg/g in data set [5] (before autoclaving). Further, the “average yield of autoclaving” value in data set [5] (autoclaving 20 minutes at 121 °C) is recorded as 97,9%. Moreover, the survival result in data set [6] (injection of liposomal form in experimental animals) is “did affect neither survival nor body weight”. Further, the “total tumoral volume, mean value” in data set [6] (liposomal, injected 3 days after implantation, sacrificed 10 days after treatment, reduced from 4.4mm3) stood at 0.8 mm3. Besides, the body weight result in data set [6] (rat, in vivo) is on record as “did affect neither survival nor body weight”. Further, in data set [7] (11 patients included), the “partial or total remission observed” value is recorded as 3 patients. In data set [7] (11 patients), the side effects entry is “No significant side effects were observed”. Also, in data set [8], the tumor volume result is on record as “marked decrease in tumor volume”.

The values above are taken from patent EP2433619A1, “Novel antitumoral agent and its therapeutic uses” (Intsel Chimos, priority 2010, dated 2012).
